Drawing on patent US20240400577A1, “MODULATORS OF PROTEIN KINASES” (VIBLIOME THERAPEUTICS, LLC, priority 2021, published 2024), this text covers inhibition and IC50 for 8 molecules.

As a reminder, the inhibition is the share of the control response that was lost under treatment. A low value points to a response near the control. A word on the IC50: it is the concentration that inhibits the measured activity by half.

What all share (experiment): Kinase panel enzymatic inhibition assay (Nanosyn)
What all share (format): biochemical

One test concerns the target T1, ARAF (Homo sapiens, UniProt P10398).
T1 construct: purchased Nanosyn (contract screening)
T1 sequence (P10398 1-606): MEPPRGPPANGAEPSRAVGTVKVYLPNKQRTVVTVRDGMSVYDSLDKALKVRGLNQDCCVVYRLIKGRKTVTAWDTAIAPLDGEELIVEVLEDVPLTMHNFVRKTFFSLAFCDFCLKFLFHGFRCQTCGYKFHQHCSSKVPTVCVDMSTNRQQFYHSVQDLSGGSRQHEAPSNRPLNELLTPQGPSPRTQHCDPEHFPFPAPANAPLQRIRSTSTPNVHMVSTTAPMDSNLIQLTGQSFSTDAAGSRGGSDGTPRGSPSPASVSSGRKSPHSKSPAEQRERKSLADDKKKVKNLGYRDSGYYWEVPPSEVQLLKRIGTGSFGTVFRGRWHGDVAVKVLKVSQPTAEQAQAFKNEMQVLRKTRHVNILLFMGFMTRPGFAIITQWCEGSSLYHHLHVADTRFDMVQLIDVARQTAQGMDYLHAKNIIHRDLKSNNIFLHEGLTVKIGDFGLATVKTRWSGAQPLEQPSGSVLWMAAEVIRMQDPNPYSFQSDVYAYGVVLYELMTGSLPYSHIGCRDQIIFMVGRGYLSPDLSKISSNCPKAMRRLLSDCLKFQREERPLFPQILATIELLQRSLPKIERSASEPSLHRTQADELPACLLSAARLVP
The conditions noted are these: compound 5 μM; ATP at Km; 30-minute pre-incubation. The protocol:
(§1) The disclosed compounds were tested for activity against a panel of at least 300 kinases. Kinase panel screening was conducted by Nanosyn (Santa Clara, CA 95051) using an enzymatic inhibition assay accepted as valid by those skilled in the art (e.g., the Caliper LabChip® mobility shift assay, an ADP detection assay, or time-resolved fluorescence detection technology. Compounds were screened at a concentration of 5 μM using an ATP concentration at the Km for each of the respective kinases and a 30-minute pre-incubation time-point.
(§2) In Table 1 and 2, kinase inhibition is classified by: A=95% or greater, B=90%-94%, C=80%-89%, and D=79% and less with a compound concentration of 5 JIM. In Table 3 and 4, kinase inhibition is reported in terms of IC50 values corresponding to A=less than 500 nm, B=500 nm to less than 1 μM, C=1 μM to less than 10 μM, and D=10 μM or greater using a compound concentration of 5 μM.

A further test has as its target T2, Abl2 (Homo sapiens, UniProt P42684).
T2 construct: purchased Nanosyn (contract screening)
The conditions noted are these: compound 5 μM; ATP at Km; 30-minute pre-incubation. How it is done: as §1, §2

For another test, the target named is T3, BRAF (Homo sapiens, UniProt P15056).
T3 construct: purchased Nanosyn (contract screening)
The following applies: compound 5 μM; ATP at Km; 30-minute pre-incubation. The protocol: as §1, §2

A further test concerns the target T4, BRK (Homo sapiens, UniProt Q13882).
T4 construct: purchased Nanosyn (contract screening)
The conditions noted are these: compound 5 μM; ATP at Km; 30-minute pre-incubation. How it is done: as §1, §2

The next test has as its target T5, CLK4 (Homo sapiens, UniProt Q9HAZ1).
T5 construct: purchased Nanosyn (contract screening)
The following applies: compound 5 μM; ATP at Km; 30-minute pre-incubation. How it is done:
as §1, §2

The target of the next test is T6, CSK (Homo sapiens, UniProt P41240).
T6 construct: purchased Nanosyn (contract screening)
The following applies: compound 5 μM; ATP at Km; 30-minute pre-incubation. The protocol: as §1, §2

The target in a further test is T7, DDR1 (Homo sapiens, UniProt Q08345).
T7 construct: purchased Nanosyn (contract screening)
The conditions noted are these: ATP at Km, 30-minute pre-incubation; for inhibition at 5 µM: compound 5 μM; for IC50: read-out: kinase inhibition in terms of IC50, DDR1. How it is done:
as §1, §2

The target in another test is T8, FGR (Homo sapiens, UniProt P09769).
T8 construct: purchased Nanosyn (contract screening)
The following applies: compound 5 μM; ATP at Km; 30-minute pre-incubation. How it is done:
as §1, §2

Another test addresses T9, HCK (Homo sapiens, UniProt P08631).
T9 construct: purchased Nanosyn (contract screening)
The conditions noted are these: compound 5 μM; ATP at Km; 30-minute pre-incubation. The protocol: as §1, §2

Another test concerns the target T10, MAP4K2 (Homo sapiens, UniProt Q12851).
T10 construct: purchased Nanosyn (contract screening)
T10 sequence (Q12851 1-820): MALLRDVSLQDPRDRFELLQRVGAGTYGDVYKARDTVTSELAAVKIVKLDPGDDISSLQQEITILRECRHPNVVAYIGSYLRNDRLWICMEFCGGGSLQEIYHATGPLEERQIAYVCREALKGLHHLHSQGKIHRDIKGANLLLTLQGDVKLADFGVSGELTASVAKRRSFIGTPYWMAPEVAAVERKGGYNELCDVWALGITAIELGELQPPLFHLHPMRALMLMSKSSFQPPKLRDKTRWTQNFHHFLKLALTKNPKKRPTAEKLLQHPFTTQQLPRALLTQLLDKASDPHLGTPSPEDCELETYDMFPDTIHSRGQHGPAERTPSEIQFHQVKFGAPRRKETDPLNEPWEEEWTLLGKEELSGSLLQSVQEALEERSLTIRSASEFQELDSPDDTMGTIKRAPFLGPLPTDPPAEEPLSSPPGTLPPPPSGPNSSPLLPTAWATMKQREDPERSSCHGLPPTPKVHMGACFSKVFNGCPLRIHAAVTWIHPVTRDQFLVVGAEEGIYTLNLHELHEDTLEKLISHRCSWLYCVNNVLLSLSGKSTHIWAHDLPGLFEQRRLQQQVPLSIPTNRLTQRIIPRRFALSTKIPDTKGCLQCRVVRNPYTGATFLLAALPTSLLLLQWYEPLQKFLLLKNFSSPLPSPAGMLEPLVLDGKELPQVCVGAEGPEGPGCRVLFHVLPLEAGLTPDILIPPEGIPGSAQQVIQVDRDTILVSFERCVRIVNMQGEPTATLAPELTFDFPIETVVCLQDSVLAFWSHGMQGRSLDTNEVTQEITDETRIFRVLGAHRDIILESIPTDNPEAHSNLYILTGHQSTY
The conditions noted are these: compound 5 μM; ATP at Km; 30-minute pre-incubation. The protocol: as §1, §2

The target in a further test is T11, MNK2 (Homo sapiens, UniProt Q9HBH9).
T11 construct: Nanosyn (contract laboratory that ran the panel)
The conditions noted are these: compound 5 μM; ATP at Km; 30-minute pre-incubation. The protocol: as §1, §2

The target of the next test is T12, PKCb1 (Homo sapiens, UniProt P05771).
T12 construct: Nanosyn (contract laboratory that ran the panel)
The conditions noted are these: compound 5 μM; ATP at Km; 30-minute pre-incubation. How it is done:
as §1, §2

The next test concerns the target T13, YES (Homo sapiens, UniProt P07947).
T13 construct: Nanosyn (contract laboratory that ran the panel)
The conditions noted are these: compound 5 μM; ATP at Km; 30-minute pre-incubation. The protocol: as §1, §2

Another test deals with T14, p38b (Homo sapiens, UniProt Q15759).
T14 construct: Nanosyn (contract laboratory that ran the panel)
The following applies: compound 5 μM; ATP at Km; 30-minute pre-incubation. How it is done: as §1, §2

T8 sequence (P09769 whole entry): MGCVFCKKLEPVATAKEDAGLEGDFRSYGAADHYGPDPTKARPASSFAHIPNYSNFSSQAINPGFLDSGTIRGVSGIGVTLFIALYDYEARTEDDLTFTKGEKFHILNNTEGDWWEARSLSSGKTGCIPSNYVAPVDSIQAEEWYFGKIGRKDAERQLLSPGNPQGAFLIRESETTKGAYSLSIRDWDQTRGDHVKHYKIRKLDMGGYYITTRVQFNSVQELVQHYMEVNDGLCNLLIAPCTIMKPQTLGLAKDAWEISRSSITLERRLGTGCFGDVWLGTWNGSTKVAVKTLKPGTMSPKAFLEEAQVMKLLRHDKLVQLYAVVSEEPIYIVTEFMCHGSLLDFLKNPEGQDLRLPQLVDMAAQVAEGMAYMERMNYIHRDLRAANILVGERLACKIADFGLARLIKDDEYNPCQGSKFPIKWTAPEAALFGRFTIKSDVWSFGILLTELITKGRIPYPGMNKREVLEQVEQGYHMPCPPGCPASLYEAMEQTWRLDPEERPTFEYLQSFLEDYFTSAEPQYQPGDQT
T7 sequence (Q08345 19-913): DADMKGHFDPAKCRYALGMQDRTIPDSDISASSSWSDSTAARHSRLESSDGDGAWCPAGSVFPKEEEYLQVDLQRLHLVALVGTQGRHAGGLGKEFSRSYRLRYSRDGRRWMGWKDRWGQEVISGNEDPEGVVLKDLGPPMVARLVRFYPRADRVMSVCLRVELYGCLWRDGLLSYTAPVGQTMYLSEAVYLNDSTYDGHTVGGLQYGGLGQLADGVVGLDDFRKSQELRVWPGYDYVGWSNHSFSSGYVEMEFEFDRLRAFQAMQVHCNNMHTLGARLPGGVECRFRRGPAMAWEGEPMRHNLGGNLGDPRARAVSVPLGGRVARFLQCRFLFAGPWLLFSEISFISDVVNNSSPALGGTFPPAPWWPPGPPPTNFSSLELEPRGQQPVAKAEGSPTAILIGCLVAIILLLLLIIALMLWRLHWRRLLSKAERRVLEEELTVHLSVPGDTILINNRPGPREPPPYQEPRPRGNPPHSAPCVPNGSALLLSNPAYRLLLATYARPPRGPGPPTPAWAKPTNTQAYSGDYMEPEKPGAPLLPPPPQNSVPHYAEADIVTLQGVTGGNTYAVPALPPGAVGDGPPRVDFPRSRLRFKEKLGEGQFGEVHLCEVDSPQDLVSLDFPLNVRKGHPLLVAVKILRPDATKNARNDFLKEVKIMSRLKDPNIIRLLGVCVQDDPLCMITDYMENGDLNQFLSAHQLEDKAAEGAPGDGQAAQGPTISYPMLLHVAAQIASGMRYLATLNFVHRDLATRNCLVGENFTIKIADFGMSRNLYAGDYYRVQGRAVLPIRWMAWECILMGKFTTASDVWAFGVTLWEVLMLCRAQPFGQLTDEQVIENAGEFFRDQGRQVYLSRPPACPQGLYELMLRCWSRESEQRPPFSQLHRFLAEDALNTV
T14 sequence (Q15759 whole entry): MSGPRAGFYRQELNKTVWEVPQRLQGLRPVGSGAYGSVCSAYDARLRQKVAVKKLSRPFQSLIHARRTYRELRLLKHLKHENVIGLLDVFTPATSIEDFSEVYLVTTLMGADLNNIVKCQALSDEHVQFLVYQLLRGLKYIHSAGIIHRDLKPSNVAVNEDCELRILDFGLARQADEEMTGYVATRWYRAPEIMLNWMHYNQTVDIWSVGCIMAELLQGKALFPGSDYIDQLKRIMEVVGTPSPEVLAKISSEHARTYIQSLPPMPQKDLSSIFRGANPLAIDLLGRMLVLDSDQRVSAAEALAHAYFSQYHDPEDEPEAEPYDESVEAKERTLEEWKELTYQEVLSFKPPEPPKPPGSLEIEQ
T6 sequence (P41240 whole entry): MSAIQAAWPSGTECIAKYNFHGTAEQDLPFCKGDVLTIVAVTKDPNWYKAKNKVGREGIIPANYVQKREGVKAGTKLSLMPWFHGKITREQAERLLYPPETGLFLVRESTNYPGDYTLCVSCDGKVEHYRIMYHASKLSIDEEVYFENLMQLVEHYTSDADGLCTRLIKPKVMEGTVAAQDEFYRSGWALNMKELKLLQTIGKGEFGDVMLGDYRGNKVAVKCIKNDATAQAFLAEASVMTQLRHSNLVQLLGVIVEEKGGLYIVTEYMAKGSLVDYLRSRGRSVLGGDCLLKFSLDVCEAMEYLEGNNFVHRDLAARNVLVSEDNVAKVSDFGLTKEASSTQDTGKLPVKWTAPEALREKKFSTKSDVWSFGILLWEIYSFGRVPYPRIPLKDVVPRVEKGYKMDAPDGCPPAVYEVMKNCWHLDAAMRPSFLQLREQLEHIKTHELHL
T5 sequence (Q9HAZ1 whole entry): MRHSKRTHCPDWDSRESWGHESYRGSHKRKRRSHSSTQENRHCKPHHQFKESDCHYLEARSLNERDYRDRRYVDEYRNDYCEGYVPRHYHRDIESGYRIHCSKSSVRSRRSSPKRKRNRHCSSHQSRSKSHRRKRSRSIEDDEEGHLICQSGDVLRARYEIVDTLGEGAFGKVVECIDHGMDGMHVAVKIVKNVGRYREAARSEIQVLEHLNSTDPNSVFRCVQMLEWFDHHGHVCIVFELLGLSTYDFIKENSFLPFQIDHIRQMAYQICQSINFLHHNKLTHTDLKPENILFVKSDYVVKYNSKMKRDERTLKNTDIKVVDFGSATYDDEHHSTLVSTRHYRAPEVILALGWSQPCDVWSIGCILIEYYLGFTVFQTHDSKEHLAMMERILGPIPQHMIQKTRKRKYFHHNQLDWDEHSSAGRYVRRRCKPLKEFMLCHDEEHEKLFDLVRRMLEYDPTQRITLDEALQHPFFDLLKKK
T3 sequence (P15056 whole entry): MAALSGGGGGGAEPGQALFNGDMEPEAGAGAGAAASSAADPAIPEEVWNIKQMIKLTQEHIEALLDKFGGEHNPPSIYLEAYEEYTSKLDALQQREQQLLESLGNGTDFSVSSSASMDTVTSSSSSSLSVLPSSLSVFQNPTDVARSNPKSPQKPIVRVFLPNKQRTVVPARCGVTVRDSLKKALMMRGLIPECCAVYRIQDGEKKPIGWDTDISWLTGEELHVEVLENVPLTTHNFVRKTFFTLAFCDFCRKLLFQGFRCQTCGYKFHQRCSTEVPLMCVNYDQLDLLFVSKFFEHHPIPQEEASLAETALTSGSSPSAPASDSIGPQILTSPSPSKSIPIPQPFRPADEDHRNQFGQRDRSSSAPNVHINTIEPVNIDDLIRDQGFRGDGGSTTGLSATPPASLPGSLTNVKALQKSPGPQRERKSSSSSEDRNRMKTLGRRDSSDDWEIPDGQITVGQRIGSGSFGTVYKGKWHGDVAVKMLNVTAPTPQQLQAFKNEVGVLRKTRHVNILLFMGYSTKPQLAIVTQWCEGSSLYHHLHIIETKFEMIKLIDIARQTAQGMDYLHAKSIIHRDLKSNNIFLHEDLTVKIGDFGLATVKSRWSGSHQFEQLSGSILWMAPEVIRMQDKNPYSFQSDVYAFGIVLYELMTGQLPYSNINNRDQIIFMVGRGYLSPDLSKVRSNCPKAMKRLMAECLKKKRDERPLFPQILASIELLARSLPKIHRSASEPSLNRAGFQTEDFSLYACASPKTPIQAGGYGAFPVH
T9 sequence (P08631 whole entry): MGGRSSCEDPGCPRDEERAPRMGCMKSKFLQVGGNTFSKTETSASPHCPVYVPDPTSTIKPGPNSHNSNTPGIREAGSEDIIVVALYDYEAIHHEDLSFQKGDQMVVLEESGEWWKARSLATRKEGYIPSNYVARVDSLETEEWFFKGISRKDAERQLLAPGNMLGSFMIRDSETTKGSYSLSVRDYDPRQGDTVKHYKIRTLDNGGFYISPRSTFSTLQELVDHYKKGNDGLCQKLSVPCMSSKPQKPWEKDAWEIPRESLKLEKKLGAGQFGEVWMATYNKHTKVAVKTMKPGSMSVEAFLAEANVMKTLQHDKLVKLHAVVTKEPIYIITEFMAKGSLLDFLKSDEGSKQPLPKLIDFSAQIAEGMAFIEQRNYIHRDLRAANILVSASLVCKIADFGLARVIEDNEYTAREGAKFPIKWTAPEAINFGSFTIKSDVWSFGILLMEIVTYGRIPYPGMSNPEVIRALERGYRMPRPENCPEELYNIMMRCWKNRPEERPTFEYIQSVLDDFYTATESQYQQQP
T12 sequence (P05771 whole entry): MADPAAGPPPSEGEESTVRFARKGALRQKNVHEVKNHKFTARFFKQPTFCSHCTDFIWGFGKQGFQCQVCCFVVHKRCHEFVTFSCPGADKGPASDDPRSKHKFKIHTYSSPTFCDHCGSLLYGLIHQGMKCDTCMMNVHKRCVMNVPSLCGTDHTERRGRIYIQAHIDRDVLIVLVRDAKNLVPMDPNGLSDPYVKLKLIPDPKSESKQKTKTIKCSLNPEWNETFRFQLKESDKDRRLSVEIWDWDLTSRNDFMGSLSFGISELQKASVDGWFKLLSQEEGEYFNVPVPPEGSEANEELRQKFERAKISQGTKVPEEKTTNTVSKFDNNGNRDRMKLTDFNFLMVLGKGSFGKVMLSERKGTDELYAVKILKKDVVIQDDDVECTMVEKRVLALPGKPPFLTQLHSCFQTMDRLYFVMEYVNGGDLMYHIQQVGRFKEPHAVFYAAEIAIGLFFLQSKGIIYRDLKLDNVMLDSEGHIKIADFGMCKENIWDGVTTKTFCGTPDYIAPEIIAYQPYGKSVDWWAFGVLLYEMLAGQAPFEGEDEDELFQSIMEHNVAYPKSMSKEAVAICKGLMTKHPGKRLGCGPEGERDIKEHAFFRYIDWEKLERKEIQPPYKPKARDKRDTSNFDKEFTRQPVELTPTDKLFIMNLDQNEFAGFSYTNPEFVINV

For `CNC(=O)c1cc(Oc2ccc(F)c(NC(=O)c3cc([S+](C)[O-])n(-c4ccc(F)cc4)n3)c2)ccn1` (centres unmarked) [Ex7, 4-(4-fluoro-3-(1-(4-fluorophenyl)-5-(methylsulfinyl)-1H-pyrazole-3-carboxamido)phenoxy)-N-methylpicolinamide], the inhibition at 5 µM on ARAF is less than 79%; on Abl2, less than 79%; on BRAF, 90 to 94%; on BRK it was less than 79%; at CLK4, less than 79%; on CSK it was less than 79%. For the same molecule, the inhibition at 5 µM against DDR1, against FGR, at HCK, against MAP4K2, against MNK2 and against PKCb1 was less than 79% each time. The inhibition at 5 µM on YES and at p38b was less than 79% each time.

`CSc1cc(C(=O)Nc2cc(Oc3ccnc(C(=O)NC4CNC4)c3)ccc2F)nn1-c1ccc(F)cc1` [Ex8, N-(azetidin-3-yl)-4-(4-fluoro-3-(1-(4-fluorophenyl)-5-(methylthio)-1H-pyrazole-3-carboxamido)phenoxy)picolinamide]: the inhibition at 5 µM is less than 79% against ARAF; less than 79% against Abl2; 90 to 94% on BRAF; less than 79% on BRK; 80 to 89% against CLK4; less than 79% against CSK. Moreover, the inhibition at 5 µM was less than 79% against DDR1; less than 79% at FGR; less than 79% against HCK; 80 to 89% against MAP4K2; 80 to 89% at MNK2; 80 to 89% against PKCb1. For the same molecule, the inhibition at 5 µM against YES and at p38b was less than 79% each time.

As to `Cc1ccc(NC(=O)c2cc(S(C)(=O)=O)n(-c3ccc(F)cc3)n2)cc1-c1cc(N2CCOCC2)c(=O)n(C)c1` [Ex12, 1-(4-fluorophenyl)-N-(4-methyl-3-(1-methyl-5-morpholino-6-oxo-1,6-dihydropyridin-3-yl)phenyl)-5-(methylsulfonyl)-1H-pyrazole-3-carboxamide], the inhibition at 5 µM on ARAF is no less than 95%; at Abl2 it was less than 79%; on BRAF, no less than 95%; at BRK it was less than 79%; against CLK4, less than 79%; on CSK, less than 79%. Besides, the inhibition at 5 µM at DDR1 is 80 to 89%; against FGR it was less than 79%; at HCK, less than 79%; at MAP4K2, less than 79%; against MNK2, less than 79%; against PKCb1, less than 79%. Further, the inhibition at 5 µM at YES and against p38b was less than 79% throughout.

For `CCOC(=O)Nc1cn2nc(Nc3cc(NC(=O)c4cc(S(C)(=O)=O)n(-c5ccc(F)cc5)n4)ccc3C)ccc2n1` [Ex15, ethyl (6-((5-(1-(4-fluorophenyl)-5-(methylsulfonyl)-1H-pyrazole-3-carboxamido)-2-methylphenyl)amino)imidazo[1,2-b]pyridazin-2-yl)carbamate], the inhibition at 5 µM is less than 79% against ARAF; no less than 95% against Abl2; no less than 95% on BRAF; less than 79% at BRK; less than 79% on CLK4; 80 to 89% on CSK. Further, the inhibition at 5 µM against DDR1 was no less than 95%; against FGR, 80 to 89%; against HCK, 80 to 89%; against MAP4K2, less than 79%; against MNK2, less than 79%; on PKCb1 it was less than 79%. In addition, the inhibition at 5 µM on YES is no less than 95%; on p38b, 80 to 89%.

Turning to `CNC(=O)c1cc(Oc2ccc(NC(=O)c3cc(S(C)(=O)=O)n(-c4ccc(F)cc4)n3)c(F)c2)ccn1` [Ex17, 4-(3-fluoro-4-(1-(4-fluorophenyl)-5-(methylsulfonyl)-1H-pyrazole-3-carboxamido)phenoxy)-N-methylpicolinamide], the inhibition at 5 µM is less than 79% against ARAF; less than 79% against Abl2; less than 79% on BRAF; no less than 95% against BRK; less than 79% against CLK4; less than 79% at CSK. Also, the inhibition at 5 µM against DDR1 is 80 to 89%; on FGR, less than 79%; on HCK, less than 79%; on MAP4K2, less than 79%; on MNK2, less than 79%; on PKCb1 it was less than 79%. For the same molecule, the inhibition at 5 µM on YES and against p38b was less than 79% in each case.

On to `Cc1ccc(NC(=O)c2cc(S(C)(=O)=O)n(-c3ccc(F)cc3)n2)cc1-c1cc(OCCO)nc(N2CCOCC2)c1` [Ex9, 1-(4-fluorophenyl)-N-(3-(2-(2-hydroxyethoxy)-6-morpholinopyridin-4-yl)-4-methylphenyl)-5-(methylsulfonyl)-1H-pyrazole-3-carboxamide], for which the inhibition at 5 µM against ARAF is no less than 95%; against Abl2 it was less than 79%; against BRAF, no less than 95%; against BRK, less than 79%; against CLK4, less than 79%; against CSK it was less than 79%. Further, the inhibition at 5 µM is no less than 95% against DDR1; less than 79% at FGR; less than 79% against HCK; less than 79% against MAP4K2; less than 79% at MNK2; less than 79% against PKCb1. The inhibition at 5 µM on YES is less than 79%; on p38b, 80 to 89%.

As for `COc1cc2nccc(Oc3ccc(NC(=O)c4cc(S(C)(=O)=O)n(-c5ccc(F)cc5)n4)cc3F)c2cc1OC` [Ex73, N-(4-((6,7-dimethoxyquinolin-4-yl)oxy)-3-fluorophenyl)-1-(4-fluorophenyl)-5-(methylsulfonyl)-1H-pyrazole-3-carboxamide], the IC50 at DDR1 is less than 0.5 µM.

For the molecule `COc1cc2nccc(Oc3ccc(NC(=O)c4cc(S(C)(=O)=O)n(-c5ccc(F)cc5)n4)c(F)c3)c2cc1OC` [Ex71, N-(4-((6,7-dimethoxyquinolin-4-yl)oxy)-2-fluorophenyl)-1-(4-fluorophenyl)-5-(methylsulfonyl)-1H-pyrazole-3-carboxamide], the IC50 at DDR1 was less than 0.5 µM.
